# Test results: patent US8987249B2, “Substituted 2-Aza-bicyclo[2.2.1]heptane-3-carboxylic acid (benzyl-cyano-methyl)-amides inhibitors of Cathepsin C” (Boehringer Ingelheim International GmbH, priority 2013, dated 2015)
# What was measured:
# [1] = molecular target: recombinant human DPPI (Cathepsin C) (Homo sapiens (Human), UniProt P53634); assay: Inhibition of human DPPI (Cathepsin C); format: biochemical; conditions: substrate Gly-Arg-AMC
# Outline: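 Fluorescence read after 30 min room-temperature turnover of 50 μM (final) substrate by recombinant human cathepsin C, pH 6.0 MES/NaCl/DTT/BSA buffer, quenched by Gly-Phe-DMK (1 μM final). Activity as percent of vehicle after background subtraction, used for IC50.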
# [2] = Determination of metabolic stability with human liver microsomes; conditions: pooled human liver microsomes; for half-life at 1 μM: human, pH 7.6; for In vitro stability in human liver microsome incubations t½: 1 μM test compound, 37° C., NADPH
# Method: Determination of Metabolic Stability with Human Liver Microsomes
# The metabolic degradation of the test compound is assayed at 37° C. with pooled human liver microsomes. The final incubation volume of 100 μl per time point contains TRIS buffer pH 7.6 (0.1 M), magnesium chloride (5 mM), microsomal protein (1 mg/ml) and the test compound at a final concentration of 1 μM. Following a short preincubation period at 37° C., the reactions are initiated by addition of beta-nicotinamide adenine dinucleotide phosphate, reduced form (NADPH, 1 mM) and terminated by transferring an aliquot into acetonitrile after different time points. Additionally, the NADPH-independent degradation is monitored in incubations without NADPH, terminated at the last time point. The [%] remaining test compound after NADPH independent incubation is reflected by the parameter c (control) (metabolic stability). The quenched incubations are pelleted by centrifugation (10,000 g, 5 min). An aliquot of the supernatant is assayed by LC-MS/MS for the amount of parent compound.
# The half-life (t½ INVITRO) is determined by the slope of the semilogarithmic plot of the concentration-time profile.
# [3] = molecular target: recombinant human Cathepsin K (Homo sapiens (Human), UniProt P43235); assay: Inhibition of human Cathepsin K; format: biochemical; conditions: substrate Z-Gly-Pro-Arg-AMC
# Outline: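 Fluorogenic Z-Gly-Pro-Arg-AMC cleavage, 60 min at room temperature, after a 10 min enzyme–compound preincubation (enzyme 2 ng/μL; compound 0.1 nM–100 μM; 1% DMSO). Buffer pH 5.5 with sodium acetate, EDTA and L-cysteine; procathepsin first activated 30 min at pH 3.5. E64 (1 μM) stop; IC50 derived from percent of vehicle signal minus background (Ex 360/Em 460 nm).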
# recombinant human Cathepsin K, sequence (P43235 115-329): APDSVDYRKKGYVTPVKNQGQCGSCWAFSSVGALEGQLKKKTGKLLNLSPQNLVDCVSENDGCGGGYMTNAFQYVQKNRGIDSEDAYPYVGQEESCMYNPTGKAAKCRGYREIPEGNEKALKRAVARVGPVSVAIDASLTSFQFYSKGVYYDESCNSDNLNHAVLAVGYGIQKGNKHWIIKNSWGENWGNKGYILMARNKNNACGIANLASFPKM
# recombinant human DPPI (Cathepsin C), sequence (P53634 231-394): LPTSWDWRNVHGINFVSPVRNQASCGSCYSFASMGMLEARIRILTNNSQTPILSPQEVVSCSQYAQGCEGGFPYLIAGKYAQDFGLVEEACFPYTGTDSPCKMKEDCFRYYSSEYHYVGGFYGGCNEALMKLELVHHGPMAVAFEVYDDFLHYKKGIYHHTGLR
# recombinant human DPPI (Cathepsin C), sequence (P53634 395-463): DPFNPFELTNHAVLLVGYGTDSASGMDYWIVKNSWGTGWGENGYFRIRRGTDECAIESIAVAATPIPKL
# recombinant human DPPI (Cathepsin C), sequence (P53634 25-134): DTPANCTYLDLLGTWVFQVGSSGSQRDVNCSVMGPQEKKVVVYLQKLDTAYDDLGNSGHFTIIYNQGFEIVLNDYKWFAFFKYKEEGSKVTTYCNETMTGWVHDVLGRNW
IC50 [1] [nM],half-life at 1 μM [2] [h],IC50 [3] [nM],In vitro stability in human liver microsome incubations t½ [2] [h],SMILES
4.2,> 2.17,3100,,N#C[C@H](Cc1ccc(N2CCN3CCOC[C@H]3C2)cc1F)NC(=O)[C@H]1N[C@@H]2CC[C@H]1C2 [Example 250]
4.5,1.67,19500,,N#C[C@H](Cc1ccc2c(c1)c(=O)[nH]c1cc(C(F)(F)F)ccc12)NC(=O)[C@H]1N[C@@H]2CC[C@H]1C2 [Example 301]
10.9,> 2.17,2500,,CCNC(=O)c1coc(-c2ccc(C[C@@H](C#N)NC(=O)[C@H]3N[C@@H]4CC[C@H]3C4)c(F)c2)c1 [Example 242]
33.3,> 2.17,5600,,COCCOCc1cn(-c2ccc(C[C@@H](C#N)NC(=O)[C@H]3N[C@@H]4CC[C@H]3C4)c(F)c2)nn1 [Example 112]
14.1,,5500,2.17,CS(=O)(=O)c1cc(OCC(F)(F)F)cc(-c2ccc(C[C@@H](C#N)NC(=O)[C@H]3N[C@@H]4CC[C@H]3C4)c(F)c2)c1 [Example 276]
10.5,> 2.17,4700,,CC(C)N1CCCN(c2ccc(C[C@@H](C#N)NC(=O)[C@H]3N[C@@H]4CC[C@H]3C4)c(F)c2)CC1 [Example 267]
1.5,> 2.17,9400,,COCCN1C(=O)Cc2ccc(-c3ccc(C[C@@H](C#N)NC(=O)[C@H]4N[C@@H]5CC[C@H]4C5)c(F)c3)cc21 [Example 158]
12.3,> 2.17,2200,,N#C[C@H](Cc1ccc(N2CCC(N3CCOCC3)CC2)cc1F)NC(=O)[C@H]1N[C@@H]2CC[C@H]1C2 [Example 193]
20.6,> 2.17,5000,,CN1CCC2CN(c3ccc(C[C@@H](C#N)NC(=O)[C@H]4N[C@@H]5CC[C@H]4C5)c(F)c3)CC21 (stereo partly drawn) [Example 349]
1.6,> 2.17,1700,,N#C[C@H](Cc1ccc(-c2ccc(C(N)=O)s2)cc1F)NC(=O)[C@H]1N[C@@H]2CC[C@H]1C2 [Example 236]
2.2,> 2.17,1700,,CS(=O)(=NC#N)c1cccc(-c2ccc(C[C@@H](C#N)NC(=O)[C@H]3N[C@@H]4CC[C@H]3C4)c(F)c2)c1 (stereo partly drawn) [Example 222]
10.2,> 2.17,6200,,N#C[C@H](Cc1ccc(-c2ccc(S(N)(=O)=O)cc2)cc1F)NC(=O)[C@H]1N[C@H]2C[C@@H]1[C@@H]1C[C@@H]12 [Example 136]
4.5,> 2.17,5300,,N#C[C@H](Cc1ccc(-c2ccc(=O)n(CC(F)F)c2)cc1F)NC(=O)[C@H]1N[C@@H]2CC[C@H]1C2 [Example 343]
2.2,> 2.17,3000,,CN1CCN(C(=O)c2cc(-c3ccc(C[C@@H](C#N)NC(=O)[C@H]4N[C@@H]5CC[C@H]4C5)c(F)c3)cs2)CC1=O [Example 233]
1.6,> 2.17,2200,,N#CC(Cc1cc2c(=O)[nH]c3ccccc3c2cc1F)NC(=O)[C@H]1N[C@@H]2CC[C@H]1C2 (stereo partly drawn) [Example 294]
8.8,> 2.17,6300,,CN1CCC2(C=C(c3ccc(C[C@@H](C#N)NC(=O)[C@H]4N[C@@H]5CC[C@H]4C5)c(F)c3)C2)CC1 [Example 359]
6.7,> 2.17,5100,,N#C[C@H](Cc1ccc(-c2cccc(S(N)(=O)=O)c2)cc1F)NC(=O)[C@H]1N[C@H]2C[C@@H]1[C@@H]1C[C@@H]12 [Example 143]
6,> 2.17,3700,,CS(C)(=O)=Nc1cccc(-c2ccc(C[C@@H](C#N)NC(=O)[C@H]3N[C@@H]4CC[C@H]3C4)c(F)c2)c1 [Example 259]

# Further lines, the compound ahead of its results:
SMILES,IC50 [1] [nM],half-life at 1 μM [2] [h],IC50 [3] [nM],In vitro stability in human liver microsome incubations t½ [2] [h]
N#C[C@H](Cc1ccc(-c2cnn(CC3CCCCO3)c2)cc1F)NC(=O)[C@H]1N[C@@H]2CC[C@H]1C2 (stereo partly drawn) [Example 28],4.1,> 2.17,2700,
CS(=O)(=O)c1cc(-c2cc(F)c(CC(C#N)NC(=O)[C@H]3N[C@@H]4CC[C@H]3C4)c(F)c2)ccc1C#N (stereo partly drawn) [Example 52],7.6,> 2.17,17000,
N#C[C@H](Cc1ccc(N2CCN3CCOCC3C2)cc1F)NC(=O)[C@H]1N[C@@H]2CC[C@H]1C2 (stereo partly drawn) [Example 43],5.6,> 2.17,2200,
CS(=O)(=O)c1ccc(-c2ccc(C[C@@H](C#N)NC(=O)[C@H]3N[C@@H]4CC[C@H]3C4)c(F)c2)cc1F [Example 12],1.9,> 2.17,2100,
N#C[C@H](Cc1ccc(-c2cnn(CC3CCOC3)c2)cc1F)NC(=O)[C@H]1N[C@@H]2CC[C@H]1C2 (stereo partly drawn) [Example 21],3.1,> 2.17,4900,
CC(=O)N1CCC(Cn2cc(-c3ccc(C[C@@H](C#N)NC(=O)[C@H]4N[C@@H]5CC[C@H]4C5)c(F)c3)cn2)CC1 [Example 55],8.2,> 2.17,3900,
CC(=O)c1cn(-c2ccc(C[C@@H](C#N)NC(=O)[C@H]3N[C@@H]4CC[C@H]3C4)c(F)c2)nn1 [Example 90],16,> 2.17,3500,
CCS(=O)(=O)c1ccc(-c2ccc(CC(C#N)NC(=O)[C@H]3N[C@@H]4CC[C@H]3C4)c(F)c2)cc1 (stereo partly drawn) [Example 71],10.8,> 2,4800,
CN1C(=O)C(=O)c2ccc(-c3ccc(C[C@@H](C#N)NC(=O)[C@H]4N[C@@H]5CC[C@H]4C5)c(F)c3)cc21 [Example 10],1.5,> 2.17,2700,
CCC(O)Cc1cn(-c2ccc(C[C@@H](C#N)NC(=O)[C@H]3N[C@@H]4CC[C@H]3C4)c(F)c2)nn1 (stereo partly drawn) [Example 89],15.6,> 2.17,5400,
CS(=O)(=O)c1cc(-c2ccc(C[C@@H](C#N)NC(=O)[C@H]3N[C@@H]4CC[C@H]3C4)c(F)c2)ccc1C#N [Example 14],2,> 2.17,2700,
CCn1nccc1-c1ccc(C[C@@H](C#N)NC(=O)[C@H]2N[C@@H]3CC[C@H]2C3)c(F)c1 [Example 110],28.6,> 2.17,9800,
"CS(=O)(=O)c1cccc(-c2ccc(C[C@@H](C#N)NC(=O)[C@H]3N[C@@H]4CC[C@H]3C4)c(F)c2)c1 [Example 4, (1S,2S,4R)—N-[(1S)-1-cyano-2-[2-fluoro-4-(3-methylsulfonylphenyl)phenyl]ethyl]-3-azabicyclo[2.2.1]heptane-2-carboxamide]",1.4,> 2.17,2600,
N#C[C@H](Cc1ccc(-c2ccc3c(c2)C(=O)NC3)cc1F)NC(=O)[C@H]1N[C@@H]2CC[C@H]1C2 [Example 95],19.2,> 2.17,3600,
N#CC(Cc1ccc(-c2cnn(-c3ccccc3)c2)cc1F)NC(=O)[C@H]1N[C@@H]2CC[C@H]1C2 (stereo partly drawn) [Example 78],12,,6700,2.17
N#C[C@H](Cc1ccc(-c2ccc(C(F)(F)F)s2)cc1F)NC(=O)[C@H]1N[C@@H]2CC[C@H]1C2 [Example 33],4.5,> 2.17,4800,
